Data taken from ChEMBL document CHEMBL5465560, “Selectivity Literature for EUbOPEN Chemogenomic Library” (2024).
Each block holds one molecule with its values, some of them ahead of it.

Columns and labels:
[1] = target: Calcium/calmodulin-dependent protein kinase type II subunit alpha (Homo sapiens, UniProt Q9UQM7); experiment: Selectivity interaction (ActivX KiNativ screen (kinase selectivity in THP-1 cell lysates)) EUB0000639a CAMK2A; type: subcellular; conditions: lysate
[2] = target: Histone-lysine N-methyltransferase SUV39H2 (Homo sapiens) (UniProt Q9H5I1); conditions: at 1 µM
[3] = tested on: ALK tyrosine kinase receptor (Homo sapiens), Q9UM73 [C1156Y]; experiment: (§1) Selectivity interaction (LanthaScreen Eu Kinase Binding Assay) EUB0001632a ALK; conditions: at 10 µM
[4] = tested on: ALK tyrosine kinase receptor (Homo sapiens), Q9UM73 [F1174L]; experiment: as §1; conditions: at 10 µM
[5] = tested on: ALK tyrosine kinase receptor (Homo sapiens), Q9UM73 [L1196M]; experiment: as §1; conditions: at 10 µM
[6] = tested on: ALK tyrosine kinase receptor (Homo sapiens), Q9UM73 [R1275Q]; experiment: as §1; conditions: at 10 µM
Chain of ALK tyrosine kinase receptor (Homo sapiens), Q9UM73 [R1275Q] (Q9UM73 whole entry R1275Q): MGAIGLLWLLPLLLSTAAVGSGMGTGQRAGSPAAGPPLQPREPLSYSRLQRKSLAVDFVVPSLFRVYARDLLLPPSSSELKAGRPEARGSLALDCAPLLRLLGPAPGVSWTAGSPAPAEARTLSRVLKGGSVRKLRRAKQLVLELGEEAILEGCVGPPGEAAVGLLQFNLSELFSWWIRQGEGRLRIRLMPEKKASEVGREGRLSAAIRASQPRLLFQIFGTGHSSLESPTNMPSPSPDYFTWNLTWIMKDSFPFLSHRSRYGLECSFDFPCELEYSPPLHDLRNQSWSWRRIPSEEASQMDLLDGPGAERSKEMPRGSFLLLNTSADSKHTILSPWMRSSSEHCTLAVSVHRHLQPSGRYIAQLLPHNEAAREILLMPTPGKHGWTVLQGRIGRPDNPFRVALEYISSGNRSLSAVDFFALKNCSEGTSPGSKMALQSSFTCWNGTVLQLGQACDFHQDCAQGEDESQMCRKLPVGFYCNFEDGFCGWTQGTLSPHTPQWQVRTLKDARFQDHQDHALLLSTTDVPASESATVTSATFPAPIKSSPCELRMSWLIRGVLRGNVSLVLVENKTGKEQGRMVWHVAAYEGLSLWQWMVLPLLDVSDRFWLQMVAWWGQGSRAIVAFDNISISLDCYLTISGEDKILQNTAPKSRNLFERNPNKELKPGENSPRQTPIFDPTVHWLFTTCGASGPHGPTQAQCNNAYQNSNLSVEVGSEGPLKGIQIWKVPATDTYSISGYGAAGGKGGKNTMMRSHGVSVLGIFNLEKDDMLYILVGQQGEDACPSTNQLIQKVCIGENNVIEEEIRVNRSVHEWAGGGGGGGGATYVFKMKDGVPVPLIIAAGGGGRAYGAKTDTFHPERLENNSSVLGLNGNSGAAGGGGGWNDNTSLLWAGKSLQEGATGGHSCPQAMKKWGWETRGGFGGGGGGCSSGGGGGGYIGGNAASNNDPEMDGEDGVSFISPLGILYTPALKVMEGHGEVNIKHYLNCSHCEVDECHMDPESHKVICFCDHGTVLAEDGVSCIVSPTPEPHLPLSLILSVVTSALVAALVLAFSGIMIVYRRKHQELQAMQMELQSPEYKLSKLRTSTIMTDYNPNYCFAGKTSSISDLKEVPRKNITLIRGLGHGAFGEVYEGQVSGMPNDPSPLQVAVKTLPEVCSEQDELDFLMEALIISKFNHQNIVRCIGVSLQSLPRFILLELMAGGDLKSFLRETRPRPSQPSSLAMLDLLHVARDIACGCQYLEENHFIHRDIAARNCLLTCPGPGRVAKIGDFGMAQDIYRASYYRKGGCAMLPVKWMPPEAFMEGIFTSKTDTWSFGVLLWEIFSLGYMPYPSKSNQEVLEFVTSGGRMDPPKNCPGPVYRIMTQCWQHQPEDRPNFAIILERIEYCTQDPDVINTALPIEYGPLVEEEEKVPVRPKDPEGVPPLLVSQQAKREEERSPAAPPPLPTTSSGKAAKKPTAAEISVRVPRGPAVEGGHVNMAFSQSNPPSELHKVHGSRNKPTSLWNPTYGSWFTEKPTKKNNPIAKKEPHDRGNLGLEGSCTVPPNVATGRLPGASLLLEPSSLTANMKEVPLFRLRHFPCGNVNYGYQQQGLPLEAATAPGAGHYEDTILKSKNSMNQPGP

[7] = target: Bone morphogenetic protein receptor type-1B (Homo sapiens, UniProt O00238); experiment: Selectivity interaction (LanthaScreen Eu Kinase Binding Assay) EUB0001632a BMPR1B; conditions: at 10 µM
[8] = target: Mitogen-activated protein kinase kinase kinase 21 (Homo sapiens) (UniProt Q5TCX8); experiment: Selectivity interaction (LanthaScreen Eu Kinase Binding Assay) EUB0001632a MAP3K21; conditions: at 10 µM
Chain of Mitogen-activated protein kinase kinase kinase 21 (Homo sapiens) (Q5TCX8 whole entry): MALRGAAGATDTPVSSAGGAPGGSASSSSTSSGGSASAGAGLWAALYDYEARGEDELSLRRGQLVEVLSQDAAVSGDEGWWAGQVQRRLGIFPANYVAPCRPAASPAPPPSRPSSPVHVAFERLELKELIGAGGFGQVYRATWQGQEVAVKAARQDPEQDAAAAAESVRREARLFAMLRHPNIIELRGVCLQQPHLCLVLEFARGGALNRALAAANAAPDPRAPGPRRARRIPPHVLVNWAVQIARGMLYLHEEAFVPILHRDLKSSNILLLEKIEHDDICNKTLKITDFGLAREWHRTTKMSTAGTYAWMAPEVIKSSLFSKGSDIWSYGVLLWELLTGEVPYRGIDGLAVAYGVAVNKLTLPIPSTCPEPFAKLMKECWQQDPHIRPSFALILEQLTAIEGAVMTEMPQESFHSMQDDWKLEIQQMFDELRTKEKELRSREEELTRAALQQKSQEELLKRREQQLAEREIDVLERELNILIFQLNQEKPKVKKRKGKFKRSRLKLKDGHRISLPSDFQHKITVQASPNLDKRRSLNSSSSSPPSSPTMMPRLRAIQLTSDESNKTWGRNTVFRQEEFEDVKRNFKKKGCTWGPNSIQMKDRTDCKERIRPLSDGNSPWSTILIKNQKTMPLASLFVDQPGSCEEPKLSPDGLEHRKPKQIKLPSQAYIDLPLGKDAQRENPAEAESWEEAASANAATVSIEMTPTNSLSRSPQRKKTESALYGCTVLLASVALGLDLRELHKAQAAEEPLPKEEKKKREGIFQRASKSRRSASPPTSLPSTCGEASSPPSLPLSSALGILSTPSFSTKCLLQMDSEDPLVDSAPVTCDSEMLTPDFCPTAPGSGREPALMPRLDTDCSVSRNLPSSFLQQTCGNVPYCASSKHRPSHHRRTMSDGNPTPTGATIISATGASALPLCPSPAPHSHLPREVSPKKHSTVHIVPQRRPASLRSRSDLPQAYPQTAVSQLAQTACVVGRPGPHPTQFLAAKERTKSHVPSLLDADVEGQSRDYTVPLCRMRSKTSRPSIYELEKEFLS

[9] = target: Mitogen-activated protein kinase 8 (Homo sapiens, UniProt P45983); experiment: Selectivity interaction (Upstate Kinase Profiler service (Millipore)) EUB0000056c MAPK8; conditions: at 1 µM
Chain of Mitogen-activated protein kinase 8 (P45983 whole entry): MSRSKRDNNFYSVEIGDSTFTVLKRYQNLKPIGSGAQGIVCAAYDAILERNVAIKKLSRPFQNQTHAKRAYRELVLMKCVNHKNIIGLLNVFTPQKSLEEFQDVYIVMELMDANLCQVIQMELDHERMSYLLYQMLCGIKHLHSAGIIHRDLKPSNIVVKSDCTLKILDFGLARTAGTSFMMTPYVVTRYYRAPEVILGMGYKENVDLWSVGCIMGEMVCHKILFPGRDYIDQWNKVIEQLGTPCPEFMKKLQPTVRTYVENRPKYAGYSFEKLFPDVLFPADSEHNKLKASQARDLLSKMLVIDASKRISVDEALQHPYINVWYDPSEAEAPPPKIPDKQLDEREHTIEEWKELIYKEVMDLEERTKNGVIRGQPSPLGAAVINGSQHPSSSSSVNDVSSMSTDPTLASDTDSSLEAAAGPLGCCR

[10] = target: Ribosomal protein S6 kinase alpha-3 (Homo sapiens, UniProt P51812); experiment: Selectivity interaction (Upstate Kinase Profiler service (Millipore)) EUB0000056c RPS6KA3; conditions: at 1 µM
[11] = target: T1, Ephrin type-A receptor 8 (Homo sapiens) (UniProt P29322); experiment: Selectivity interaction (KinomeScan (DiscoverX)) EUB0000045b EPHA8
T1 sequence (whole entry): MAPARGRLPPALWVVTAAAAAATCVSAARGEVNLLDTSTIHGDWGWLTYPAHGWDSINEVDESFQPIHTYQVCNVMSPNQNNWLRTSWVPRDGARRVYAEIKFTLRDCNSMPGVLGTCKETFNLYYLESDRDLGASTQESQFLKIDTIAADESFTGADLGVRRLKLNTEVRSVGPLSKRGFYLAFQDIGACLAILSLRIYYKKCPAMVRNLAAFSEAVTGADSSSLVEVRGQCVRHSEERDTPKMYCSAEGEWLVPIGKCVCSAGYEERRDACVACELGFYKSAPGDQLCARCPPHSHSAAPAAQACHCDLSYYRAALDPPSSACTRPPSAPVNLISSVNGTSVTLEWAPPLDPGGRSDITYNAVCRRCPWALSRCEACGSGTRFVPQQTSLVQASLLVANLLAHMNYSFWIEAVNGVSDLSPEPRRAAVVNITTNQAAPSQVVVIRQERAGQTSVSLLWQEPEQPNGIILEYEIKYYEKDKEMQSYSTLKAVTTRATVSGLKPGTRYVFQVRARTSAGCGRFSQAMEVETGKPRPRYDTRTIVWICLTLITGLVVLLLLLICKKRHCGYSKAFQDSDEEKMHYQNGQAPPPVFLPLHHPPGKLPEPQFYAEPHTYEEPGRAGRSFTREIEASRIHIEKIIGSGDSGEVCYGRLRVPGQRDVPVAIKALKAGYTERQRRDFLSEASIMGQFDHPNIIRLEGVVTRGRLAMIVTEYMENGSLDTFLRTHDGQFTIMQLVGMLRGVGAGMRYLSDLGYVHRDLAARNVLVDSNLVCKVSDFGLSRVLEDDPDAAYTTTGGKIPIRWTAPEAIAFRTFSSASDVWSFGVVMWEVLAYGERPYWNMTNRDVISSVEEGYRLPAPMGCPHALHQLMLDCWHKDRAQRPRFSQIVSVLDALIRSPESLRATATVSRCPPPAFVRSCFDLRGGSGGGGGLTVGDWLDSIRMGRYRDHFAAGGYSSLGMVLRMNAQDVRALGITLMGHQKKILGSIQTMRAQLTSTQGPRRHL

[12] = target: T2, Mitogen-activated protein kinase kinase kinase kinase 3 (Homo sapiens) (UniProt Q8IVH8); experiment: Selectivity interaction (KinomeScan (DiscoverX)) EUB0000045b MAP4K3
T2 sequence (whole entry): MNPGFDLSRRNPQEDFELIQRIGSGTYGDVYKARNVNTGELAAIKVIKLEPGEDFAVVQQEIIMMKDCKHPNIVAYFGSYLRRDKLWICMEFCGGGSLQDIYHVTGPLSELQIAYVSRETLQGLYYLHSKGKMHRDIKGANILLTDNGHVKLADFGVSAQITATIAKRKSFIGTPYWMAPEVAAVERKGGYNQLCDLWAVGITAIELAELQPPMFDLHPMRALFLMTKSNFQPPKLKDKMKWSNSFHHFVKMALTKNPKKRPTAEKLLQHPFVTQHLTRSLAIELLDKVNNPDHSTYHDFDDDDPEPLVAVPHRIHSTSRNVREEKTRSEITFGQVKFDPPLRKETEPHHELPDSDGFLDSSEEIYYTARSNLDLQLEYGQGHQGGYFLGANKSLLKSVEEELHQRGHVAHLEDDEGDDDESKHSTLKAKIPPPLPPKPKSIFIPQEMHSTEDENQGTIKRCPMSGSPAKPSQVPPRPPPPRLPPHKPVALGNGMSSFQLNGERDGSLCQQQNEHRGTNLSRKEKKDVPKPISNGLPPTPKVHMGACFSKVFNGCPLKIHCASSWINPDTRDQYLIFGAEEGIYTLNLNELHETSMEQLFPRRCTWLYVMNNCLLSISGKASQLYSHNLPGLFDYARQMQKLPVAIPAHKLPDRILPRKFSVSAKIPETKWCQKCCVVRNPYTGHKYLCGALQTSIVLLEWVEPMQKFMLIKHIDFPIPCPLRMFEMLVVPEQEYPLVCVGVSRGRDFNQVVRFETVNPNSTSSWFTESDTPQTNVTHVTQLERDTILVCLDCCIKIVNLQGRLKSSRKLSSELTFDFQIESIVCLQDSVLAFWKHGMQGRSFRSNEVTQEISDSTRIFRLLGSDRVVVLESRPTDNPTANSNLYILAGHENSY

[13] = target: TRAF2 and NCK-interacting protein kinase (Homo sapiens) (UniProt Q9UKE5); experiment: Selectivity interaction (KinomeScan (DiscoverX)) EUB0000045b TNIK
Chain of TRAF2 and NCK-interacting protein kinase (Homo sapiens) (Q9UKE5 whole entry, looked up): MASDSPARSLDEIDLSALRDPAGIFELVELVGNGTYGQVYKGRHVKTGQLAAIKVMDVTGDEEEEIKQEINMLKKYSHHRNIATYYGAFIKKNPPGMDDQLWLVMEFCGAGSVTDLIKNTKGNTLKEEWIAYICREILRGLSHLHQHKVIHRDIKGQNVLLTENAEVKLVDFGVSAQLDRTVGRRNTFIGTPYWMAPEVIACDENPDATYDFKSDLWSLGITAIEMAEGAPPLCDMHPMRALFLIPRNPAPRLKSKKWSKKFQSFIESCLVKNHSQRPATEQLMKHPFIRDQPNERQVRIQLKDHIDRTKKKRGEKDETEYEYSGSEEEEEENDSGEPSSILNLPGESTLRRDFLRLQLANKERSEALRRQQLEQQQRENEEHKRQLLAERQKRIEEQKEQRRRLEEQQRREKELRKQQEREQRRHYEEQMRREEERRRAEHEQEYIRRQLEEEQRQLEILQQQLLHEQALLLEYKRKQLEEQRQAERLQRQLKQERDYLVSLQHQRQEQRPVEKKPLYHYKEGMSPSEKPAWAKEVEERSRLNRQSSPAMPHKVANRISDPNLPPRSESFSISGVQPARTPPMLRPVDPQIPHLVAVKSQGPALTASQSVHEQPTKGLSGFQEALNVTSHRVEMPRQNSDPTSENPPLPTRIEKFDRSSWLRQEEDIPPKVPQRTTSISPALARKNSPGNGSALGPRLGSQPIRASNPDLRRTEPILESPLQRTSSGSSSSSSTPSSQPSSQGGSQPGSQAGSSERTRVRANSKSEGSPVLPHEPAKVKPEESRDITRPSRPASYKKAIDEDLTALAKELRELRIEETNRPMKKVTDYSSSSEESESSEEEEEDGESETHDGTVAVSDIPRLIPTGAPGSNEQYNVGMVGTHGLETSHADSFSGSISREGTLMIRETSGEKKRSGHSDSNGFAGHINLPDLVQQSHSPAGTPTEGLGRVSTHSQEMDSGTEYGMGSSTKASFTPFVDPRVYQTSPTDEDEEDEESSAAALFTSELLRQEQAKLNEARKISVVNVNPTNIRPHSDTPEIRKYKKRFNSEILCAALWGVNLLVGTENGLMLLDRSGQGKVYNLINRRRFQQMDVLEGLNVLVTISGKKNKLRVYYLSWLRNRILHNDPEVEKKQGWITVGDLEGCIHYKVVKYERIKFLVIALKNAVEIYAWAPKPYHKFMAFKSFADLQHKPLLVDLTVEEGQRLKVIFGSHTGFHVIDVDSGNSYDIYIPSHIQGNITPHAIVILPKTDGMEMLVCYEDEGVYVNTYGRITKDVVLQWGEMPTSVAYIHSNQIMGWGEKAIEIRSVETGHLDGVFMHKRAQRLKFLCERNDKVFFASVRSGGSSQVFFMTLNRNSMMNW

Chain of Calcium/calmodulin-dependent protein kinase type II subunit alpha (Q9UQM7 whole entry): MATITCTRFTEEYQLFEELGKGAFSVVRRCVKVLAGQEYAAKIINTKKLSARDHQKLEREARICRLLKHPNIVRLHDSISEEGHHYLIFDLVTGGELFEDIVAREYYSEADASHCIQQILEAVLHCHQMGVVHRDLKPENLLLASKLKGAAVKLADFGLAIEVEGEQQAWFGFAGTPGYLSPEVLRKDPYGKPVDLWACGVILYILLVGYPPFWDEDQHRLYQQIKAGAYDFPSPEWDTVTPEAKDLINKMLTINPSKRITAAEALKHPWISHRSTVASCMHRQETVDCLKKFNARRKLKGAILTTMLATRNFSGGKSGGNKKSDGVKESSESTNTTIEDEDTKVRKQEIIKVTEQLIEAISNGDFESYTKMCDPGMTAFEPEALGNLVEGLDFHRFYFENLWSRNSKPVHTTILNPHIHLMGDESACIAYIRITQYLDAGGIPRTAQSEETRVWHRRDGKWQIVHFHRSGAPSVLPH

SMILES: CC[C@@H]1[C@H](F)C(=O)N[C@@H]1COc1nccc2cc(C(N)=O)c(OC)cc12 [ZIMLOVISERTIB]
% of inhibition ([1]; at 0.01 µM): 3.3%
% of inhibition ([1]; at 0.04 µM): 16.7%
% of inhibition ([1]; at 0.2 µM): 6.9%
% of inhibition ([1]; at 1 µM): 25.1%
% of inhibition ([1]; at 5 µM): 56.2%

SMILES: Cn1cc(-n2cnc3c(NCc4nc5cc(Cl)c(Cl)cc5[nH]4)nc(N4CCOCC4)nc32)cn1
% of inhibition [3]: -8.74%
% of inhibition [4]: -19.4%
% of inhibition [5]: -25.5%
% of inhibition [6]: -41.1%
% of inhibition [7]: -57.7%
% of inhibition [8]: -59.8%

SMILES: C=CC(=O)Nc1cc(-n2c(=O)ccc3cnc4ccc(-c5ccc(NS(C)(=O)=O)cc5)cc4c32)ccc1C
% of control ([11]; at 1 µM): 100%
% of control ([11]; at 10 µM): 76%
% of control ([12]; at 1 µM): 100%
% of control ([12]; at 10 µM): 100%
% of control ([13]; at 1 µM): 96%
% of control ([13]; at 10 µM): 100%

The remaining lines, values ahead:

% activity [2]: > 90%
SMILES: CNCCN1CCC(c2cc(CN(C)C(=O)c3cccc(Oc4ccccc4)c3)ccn2)CC1

% of inhibition [9]: 10%
% of inhibition [10]: 27%
SMILES: Cc1ccc(-c2ccc3c(ccc4sc5c(c43)NC[C@@H](C)NC5=O)n2)cn1
